The source of these data is BindingDB's records for patent US8940738 (Mitsubishi Tanabe Pharma, 2015).

The target of this experiment is T1, Serine/threonine-protein (Bos taurus, UniProt A0A3Q1MT31).
T1 construct: gene GSK3B
T1 sequence (A0A3Q1MT31 1-419): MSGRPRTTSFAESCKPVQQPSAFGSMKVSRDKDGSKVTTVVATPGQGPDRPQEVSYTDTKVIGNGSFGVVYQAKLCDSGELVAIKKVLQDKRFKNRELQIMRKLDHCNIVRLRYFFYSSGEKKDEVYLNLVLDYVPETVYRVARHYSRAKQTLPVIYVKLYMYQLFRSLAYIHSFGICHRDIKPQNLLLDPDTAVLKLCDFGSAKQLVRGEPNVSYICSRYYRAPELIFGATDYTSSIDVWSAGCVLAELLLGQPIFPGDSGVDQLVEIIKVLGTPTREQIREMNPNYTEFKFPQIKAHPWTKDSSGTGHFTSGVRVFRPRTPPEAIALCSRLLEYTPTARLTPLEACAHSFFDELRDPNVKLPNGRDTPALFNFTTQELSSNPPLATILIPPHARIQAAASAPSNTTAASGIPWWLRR
In words: Inhibition Assay. Particulars: pH 6.5; 25 °C. The method, then:
A mixture containing 100 mM MES-sodium hydroxide (pH 6.5), 1 mM magnesium acetate, 0.5 mM EGTA, 5 mM beta-mercaptoethanol, 0.02% Tween 20, 10% glycerol, 12 ug/ml P-GS1, 41.7 uM [gamma-32P] ATP (68 kBq/ml), bovine cerebral TPK1 and a compound shown in Table (a final mixture contained 1.7% DMSO deriving from a solution of a test compound prepared in the presence of 10% DMSO) was used as a reaction system. The phosphorylation was started by adding ATP, and the reaction was conducted at 25 C. for 2 hours, and then stopped by adding 21% perchloric acid on ice cooling. The reaction mixture was centrifuged at 12,000 rpm for 5 minutes and adsorbed on P81 paper (Whatmann), and then the paper was washed four times with 75 mM phosphoric acid, three times with water and once with acetone. The paper was dried, and the residual radioactivity was measured using a liquid scintillation counter.
In turn, `Cc1cccc(N2CCN(c3nc(-c4ncncc4F)cc(=O)n3C)CC2)c1C` [US8940738, 7] returned an IC50 of 78.3 nM. In other words, the double-digit nanomolar range. As for `CN(CCc1ccc([N+](=O)[O-])cc1)c1nc(-c2ncncc2F)cc(=O)n1C` [US8940738, 10], the IC50 worked out at 165 nM.

Take `Cn1c(N2CCOC[C@H]2CF)nc(-c2ncncc2F)cc1=O` [US8940738, 3]: the IC50 came out at 33.4 nM. This IC50 lies about 4.9-fold lower than the previous one.

`COc1ccc(CCNc2nc(-c3ncncc3F)cc(=O)n2C)cc1OC` [US8940738, 8] registered a 50% inhibitory concentration (IC50) of 75.3 nM. To `Cc1nc(-c2ccc([C@H]3CN(c4nc(-c5ncncc5F)cc(=O)n4C)CCO3)cc2)no1` [US8940738, 4] belongs 8.4 nM; to `C[C@@H]1COCCN1c1nc(-c2ncncc2F)cc(=O)n1C` [US8940738, 2], 19.7 nM; to `Cc1nc(-c2ccc([C@H]3CN(c4nc(-c5ccncn5)c(O)c(=O)n4C)CCO3)cc2)no1` [US8940738, 11], 6.7 nM.

Take `Cn1c(N2CCCC(c3ccc(N4CCCC4)cc3)C2)nc(-c2ncncc2F)cc1=O` (centres undefined) [US8940738, 5]: the half-maximal inhibitory concentration (IC50) was 33.1 nM. This IC50 lies about 4.9-fold higher than the previous one.

`Cn1c(NCC(=O)c2ccc(Cl)cc2)nc(-c2ncncc2F)cc1=O` [US8940738, 9] yielded a half-inhibitory concentration (IC50) of 608 nM.
